Test results: patent US8263642B2, “Antimicrobial compounds and methods of use thereof” (Vanderbilt University, priority 2008, dated 2012)

Test system: HssRS-dependent hrtAB expression
Experiment: Luminescence-based assay to monitor HssRS-dependent hrtAB expression (phrtABlux reporter), Newman
Assay type: cell-based, Staphylococcus aureus
Conditions: Newman; for activation at 0.0825 µM: Staphylococcus aureus, NEWMAN, read-out: % Lumi, luminescence induced by the compound compared to the heme control (82.5 nM) in the same plate; for Luminescence: raw luminescence value obtained in a luminometer
Outline: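 S. aureus Newman wild type or ΔhssR carrying a hrtAB promoter–luxCDABE reporter (phrtABlux), grown in TSB with 10 μg/ml chloramphenicol at 37 °C. Light output read against 82.5 nM heme as the in-plate positive control. Activity given as % of heme-induced luminescence.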

For CC(C)(C)c1ccc(O)c(NC(=S)NC(=O)c2cc3ccccc3o2)c1, the activation at 0.0825 µM was 101% and the Luminescence was 419.
Fc1ccc(CNC(=S)Nc2ccc(Oc3ccccc3)cc2)cc1 showed an activation at 0.0825 µM of 362% and a Luminescence of 1570.
COc1ccc(-c2cc(-c3ccc(OC)cc3O)n[nH]2)cc1 showed an activation at 0.0825 µM of 238% and a Luminescence of 1482.
Oc1c(-c2cc(-c3ccco3)[nH]n2)ccc2ccccc12 [drawing 65] was tested, and the activation at 0.0825 µM was 630% and the Luminescence was 2622.
COc1ccc(-c2cc(-c3ccc(C)cc3)[nH]n2)c(O)c1 gave an activation at 0.0825 µM of 180% and a Luminescence of 1122.
Compound CCCN1C(=O)/C(=C2/C(=O)N(CC(=O)Nc3ccc(Cl)cc3)c3ccccc32)SC1=S [drawing 67] has a Luminescence of 98.
Work on COc1ccccc1NC1=C/C(=N\S(=O)(=O)c2ccc(Br)cc2)c2ccccc2C1=O [drawing 81] yielded an activation at 0.0825 µM of 510% and a Luminescence of 2270.
Cc1ccc(O)c(NC(=O)c2nn3c(c2Br)NC(c2ccco2)CC3C(F)(F)F)c1 (stereo not shown) [drawing 29] showed an activation at 0.0825 µM of 307% and a Luminescence of 1949.
CC(NC(=O)C1(c2ccccc2)CCCC1)C1COc2ccccc2O1 (stereo not shown) [drawing 45] gave a Luminescence of 757.
O=C(N/N=C/c1ccc(-c2ccc(Br)cc2)o1)C1COc2ccccc2O1 (stereo not shown) [drawing 48] showed an activation at 0.0825 µM of 133% and a Luminescence of 485.
In the case of Oc1c(-c2cc(-c3ccco3)[nH]n2)ccc2ccccc12 [drawing 25], the Luminescence was 2622.
Cc1cccc(C(=O)Nc2ccc(-c3nc4ccccc4o3)cc2)c1 [drawing 43] was tested, and the Luminescence was 837.
COc1ccc(C(=O)Nc2sc(-c3ccccc3)cc2C(N)=O)cc1 was tested, and the activation at 0.0825 µM was 244% and the Luminescence was 1781.
Work on CC(NC(=O)C1(c2ccccc2)CCCC1)C1COc2ccccc2O1 (stereo not shown) [drawing 26] yielded an activation at 0.0825 µM of 266% and a Luminescence of 757.
COc1ccc(Br)cc1C(=O)NC(=S)Nc1cc(C)c(C)cc1O [drawing 63] gave a Luminescence of 946.
For O=C(N/N=C/c1ccc(-c2cccc(C(F)(F)F)c2)o1)C1COc2ccccc2O1 (stereo not shown) [drawing 49], the activation at 0.0825 µM was 152% and the Luminescence was 558.
Cc1ccc(NS(=O)(=O)c2ccc3c(c2)Cc2cc(S(=O)(=O)Nc4ccc(C)cc4)ccc2-3)cc1 [drawing 74] showed a Luminescence of 7328.
